Data on one molecule can be found in patent publication US9199917B2, “N-substituted benzenepropanamide or benzenepropenamide derivatives for use in the treatment of pain and inflammation” (Novaremed Limited, priority 2008, dated 2015).

In this assay the test system is Balb/c mice. The assay can be described thus: Hot-Plate Test of Balb/c mice vs. imipramine, i.p. & p.o. (Example 2). The following applies: 5 mg/kg i.p. at t=0, group Average. The format is in vivo. Here is the method: 14-week old male Balb/c mice (non-naive) were divided into four groups of seven mice per group and treated at t=0 as detailed in Table 3 below:
Compound 18 stock comprises 9.4 mg Compound 18, 0.2 mL DMSO and 0.8 mL saline.
As in Example 1 above, the response latencies of the mice in the respective groups were tested using a hot-plate at t=−60 mins., 0 mins., 60 mins., 120 mins., 180 mins., 240 mins., 300 mins. and 360 mins.

In the case of `CN(C)CCCN1c2ccccc2CCc2ccccc21` [Imipramine, imipramine], the hot-plate response latency by setting is: (tested at t=0 mins.) 13.7 s; (tested at t=60 mins.) 14.9 s; (tested at t=120 mins.) 14.6 s; (tested at t=240 mins.) 22.9 s; (tested at t=300 mins.) 23.1 s.
